Experimental data published in article PMC6134108, “Nystatin-like Pseudonocardia polyene B1, a novel disaccharide-containing antifungal heptaene antibiotic” (Scientific Reports, 2018).
Converted amounts (≈) assume the structure as drawn. Read-outs that look alike come from different tables or passages of the source.

Columns and labels:
[1] = tested on: C. albicans SC5314; test: MIC assay (CLSI M27-A3 microbroth); type: cell-based; conditions: Candida albicans
Experimental: (§1) For the minimum inhibitory concentration (MIC) assay, strains for testing were grown on YPD agar for 24 hours, and subcultured to YPD broth medium. Whole strains were incubated for 18 hours at 35 °C by shaking incubator. Grown organisms were diluted with fresh RPMI 1640 medium to appropriate concentration, 5 × 10^4 CFU/ml. Cultures were inoculated to 96-well plates containing antifungal medium. All compounds were dissolved using Dimethyl Sulfoxide (DMSO) and diluted broth media. Fungal diluted solution and antifungal medium were mixed at 1:1 ratio so total 200 ul mixed medium was made. Whole experiment plates were incubated for 24 hours at 37 °C. […] The MICs were calculated in duplicate using the Clinical and Laboratory Standards Institute M27-A3 microbroth methodology. Hemolysis experiments and the 3-(4,5-dimethylthiazol-2-yl)-5-(3-carboxymethoxyphenyl)-2-(4-sulfophenyl)-2H-tetrazolium (MTS) cell proliferation colorimetric assay were performed following known procedures[12],[27],[29].

[2] = tested on: C. albicans SL28; test: MIC assay (CLSI M27-A3 microbroth); type: cell-based; conditions: Candida albicans
Experimental: as §1

[3] = tested on: C. albicans SL38; test: MIC assay (CLSI M27-A3 microbroth); type: cell-based; conditions: Candida albicans
Experimental: as §1

[4] = tested on: Candida albicans KCTC7965; test: MIC assay (CLSI M27-A3 microbroth); type: cell-based
Experimental: as §1

[5] = tested on: horse blood cells; type: cell-based
Experimental: as §1

[6] = Microsomal (metabolic) stability; type: in vitro ADME; conditions: human liver microsomes 1.0 mg/ml; for half-life at 1 µM / microsomal CLint at 1 µM / remaining at 80 min, 1 µM: pH 7.4; for remaining at 80 min, 1 µM: 80-min incubation
Experimental: A metabolic stability experiment was conducted to calculate the rate of disappearance of polyene macrolides following in vitro incubation with human microsomes. Working solutions of polyene macrolides were prepared from a 10 mM stock solution in dimethyl sulfoxide (DMSO) diluted to a final concentration of 1 µM in 0.1 M potassium phosphate buffer (pH 7.4). Each incubation mixture included 1 mg/mL human microsomal protein (BD Gentest^TM, Franklin Lakes, NJ, USA) and 1 mM NADPH. The reactions were terminated at 0, 15, 45, and 80 min. The reaction mixtures were vigorously vortexed and then analyzed using the API2000 LC-MS/MS) system (Applied Biosystems, USA) using an Xterra MS C18 (3.5-µm, 2.1 × 50 mm, Waters).

[7] = in vivo; conditions: mouse, 1 mg/kg
Description: Supplement 41598_2018_31801_MOESM1_ESM.docx, table 4: Table S4.

[8] = Single intravenous dose acute toxicity; type: in vivo, mice; conditions: both sexes, ICR, mouse, in vivo; mice, single intravenous administration; read-out: LD50, median lethal dose (dose causing 50% mortality)
Experimental: All in vivo mouse toxicity studies were conducted according to Testing Guidelines for Safety Evaluation of Drugs[32] and the Organisation for Economic Co-operation and Development (OECD) Guideline[33]. Male and female ICR mice were used 7 weeks old for the toxicity test. […] The single doses were 1, 2.5, and 5 mg per kg body weight.

[9] = 7-day repeated intravenous dose toxicity; type: in vivo, mice; conditions: both sexes, ICR, mouse, in vivo; mice, 7-day repeated intravenous doses; read-out: MTD, maximal tolerated dose
Experimental: All in vivo mouse toxicity studies were conducted according to Testing Guidelines for Safety Evaluation of Drugs[32] and the Organisation for Economic Co-operation and Development (OECD) Guideline[33]. Male and female ICR mice were used 7 weeks old for the toxicity test. […]

[10] = rats, oral administration
[11] = design: method as in PMID 22382166; conditions: cited from earlier work
[12] = design: method as in PMID 22382166; conditions: cited from earlier work; remark: listed apart in the source
[13] = in vivo; conditions: male, SD, rat, iv, 1 mg/kg
[14] = cited from earlier work
[15] = tested on: C. albicans SC5314; test: In vivo efficacy, candidiasis-infected mouse model (survival); design: species or system Candida albicans; conditions: ICR mice infected with C. albicans SC5314; low dose 0.1 mg/kg
Description: The systemic infection animal model was established using 4-week-old male ICR mice. Five C. albicans strains, consisting of two standard (C. albicans SC5314 and KCTC7965) and three clinical (C. albicans SL23, SL28, and SL38) strains were intravenously injected into the lateral tail vein of the various mouse groups. The mice were daily monitored for signs and mortality, and then they were euthanized. Subsequently, the target pathogenic C. albicans strain and optimal concentration for systemic infection for C. albicans were determined. A clinical isolate of C. albicans (SC5314) was grown and subcultured at 35 °C on Sabouraud dextrose agar (SDA) before infection. Candidiasis was induced by injecting 5 × 10^5 CFU/mouse via the tail vein of six 4-week-old ICR male mice. Each animal in the treatment group was administered a subcutaneous injection of reconstituted polyene macrolides 4 h after the infection. The drug efficacy was investigated by determining the survival rates of the mice.

SMILES: CC(=O)NC1C(OC2C(C)OC(OC3C=CC=CC=CC=CCCC=CC=CC(C)C(O)C(C)C(C)OC(=O)CC(O)CC(O)CC(O)CCC(O)C(O)CC4(O)CC(O)C(C(=O)O)C(C3)O4)C(O)C2N)OC(CO)C(O)C1O (stereo not drawn) [NPP A1, nystatin-like Pseudonocardia polyene (NPP) A1]
- MIC ([1]; SC5314, read-out: Antifungal activity (MIC)): 16 µg/mL (≈ 14.2 µM)
- MIC ([2]; SL28, read-out: Antifungal activity (MIC)): 16 µg/mL (≈ 14.2 µM)
- MIC ([3]; SL38, read-out: Antifungal activity (MIC)): 16 µg/mL (≈ 14.2 µM)
- MIC ([4]; Candida albicans, KCTC7965, read-out: Antifungal activity (MIC)): 16 µg/mL (≈ 14.2 µM)
- Hemolytic activity (MHC, minimum hemolytic concentration) ([5]; 90% hemolysis against horse blood cells, ± percentage standard deviation): 459.35 ± 32.5 µg/mL
- Clearance class [6]: Low
- half-life at 1 µM [6]: > 80 min
- microsomal CLint at 1 µM [6]: < 8600 µL/min/mg
- remaining at 80 min, 1 µM [6]: 60.9%
- AUC(0-inf) ([7]; read-out: AUC0-inf): 12700 ng·h/mL
- AUC(0-t) ([7]; read-out: AUC0-t): 12400 ng·h/mL
- clearance ([7]; read-out: CL (converted)): 1.67 mL/min/kg
- MRT inf ([7]; read-out: MRTinf): 66 min
- Vd ([7]; read-out: Vss): 0.1 L/kg
- half-life ([7]; read-out: t1/2 (converted)): 60 min
- LD50 at 7 days [8]: 16.1 mg/kg
- MTD at 7 days [9]: 5 to 10 mg/kg
- detection in the plasma following oral administration [10]: not detected
- water-solubility, fold higher than nystatin A1 [11]: 300 fold
- antifungal activity, lower than nystatin A1 [12]: approximately 50%
- AUC(0-inf) ([13]; plasma): 4470 ng·h/mL
- AUC(0-t) ([13]; plasma): 4390 ng·h/mL
- MRT inf ([13]; plasma): 42 min
- Vd ([13]; plasma): 0.1 L/kg
- clearance ([13]; plasma): 3.33 mL/min/kg
- half-life ([13]; plasma): 36 min
- hemolytic activity, fold reduced versus nystatin A1 [14]: 10 fold

SMILES: C[C@@H]1[C@H](O)[C@@H](C)/C=C/C=C/CC/C=C/C=C/C=C/C=C/[C@H](O[C@@H]2O[C@H](C)[C@@H](O)[C@H](N)[C@@H]2O)C[C@@H]2O[C@](O)(C[C@@H](O)[C@H](O)CC[C@@H](O)C[C@@H](O)C[C@@H](O)CC(=O)O[C@H]1C)C[C@H](O)[C@H]2C(=O)O [Nystatin A1, nystatin A1]
- MIC ([1]; C. albicans SC5314, no visible growth, read-out: Antifungal activity (MIC)): 4 µg/mL (≈ 4.32 µM)
- MIC ([2]; C. albicans SL28, no visible growth, read-out: Antifungal activity (MIC)): 4 µg/mL (≈ 4.32 µM)
- MIC ([3]; C. albicans SL38, no visible growth, read-out: Antifungal activity (MIC)): 4 µg/mL (≈ 4.32 µM)
- MIC ([4]; Candida albicans KCTC7965, no visible growth, read-out: Antifungal activity (MIC)): 4 µg/mL (≈ 4.32 µM)
- Hemolytic activity (MHC, minimum hemolytic concentration) ([5]; horse): 66.17 ± 0.90 µg/mL
- Clearance class [6]: Low
- half-life at 1 µM [6]: > 80 min
- microsomal CLint at 1 µM [6]: < 8600 µL/min/mg
- remaining at 80 min, 1 µM [6]: 115%
- AUC(0-inf) [7]: 7150 ng·h/mL
- AUC(0-t) [7]: 7120 ng·h/mL
- MRT inf [7]: 54 min
- Vd [7]: 0.1 L/kg
- clearance [7]: 1.67 mL/min/kg
- half-life [7]: 36 min
- LD50 at 7 days [8]: 5.37 mg/kg
- MTD at 7 days [9]: 2 to 4 mg/kg
- survival rate [15]: gradually decreased
- MRT inf ([13]; in vivo): 48 min
- AUC(0-inf) ([13]; plasma): 5300 ng·h/mL
- AUC(0-t) ([13]; plasma): 5120 ng·h/mL
- Vd ([13]; plasma): 0.2 L/kg
- clearance ([13]; plasma): 3.33 mL/min/kg
- half-life ([13]; plasma): 36 min
